In test [1] the test system is human monocytic leukemia U937 cells. The test can be described thus: necroptosis assay in U937 cells. To be noted: Homo sapiens, U-937, U937 cells; viability by cellular ATP (Cell Titer-Glo); read-out: pIC50, inhibited necrosis in U937 cells (converted). Format: cell-based. How it is done:
The efficacy of RIP1 inhibitors can be tested […] in vitro using a human monocytic leukemia U937 or mouse L929 fibrosarcoma cells in a necroptosis assay. As determined using the method described in S. He et al., Cell, 137(6):1100-1111 (2009) and International Patent Appln. No. PCT/IB2014/059004, now, International Patent Appln. Pub.
Viability was measured by quantitating cellular levels of ATP using the Cell Titer-Glo kit. All data are means±standard deviation of the mean.
On the technique in general: In ATP-based viability assays light output follows the ATP content of the culture.

In a further test the target is T1, RIP1 kinase (Homo sapiens, UniProt Q13546).
T1 sequence (Q13546 1-375 limits assumed): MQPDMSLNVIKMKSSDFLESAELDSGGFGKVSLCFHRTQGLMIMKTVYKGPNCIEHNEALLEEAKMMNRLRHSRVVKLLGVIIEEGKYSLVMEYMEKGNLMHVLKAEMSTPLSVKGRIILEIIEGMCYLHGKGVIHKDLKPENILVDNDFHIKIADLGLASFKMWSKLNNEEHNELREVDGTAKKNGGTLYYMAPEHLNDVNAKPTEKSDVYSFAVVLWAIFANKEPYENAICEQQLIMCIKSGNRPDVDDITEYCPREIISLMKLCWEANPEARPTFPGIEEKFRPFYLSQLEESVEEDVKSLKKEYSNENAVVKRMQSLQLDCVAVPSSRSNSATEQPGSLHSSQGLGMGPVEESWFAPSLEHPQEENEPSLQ
The test can be described thus: fluorescent polarization based binding assay. To be noted: mean of a minimum of 2 experiments. The source says:
A fluorescent polarization based binding assay was used to assess the activity of the compounds of this invention, the details of which are disclosed in International Patent Appln. No. PCT/IB2014/059004, now, International Patent Appln. Pub.

Each structure is given as a SMILES string. Several values for one entry are separate records, joined by “and”; a condition that tells them apart may be missing. Identical values can stand only once.

Regarding `O=C(C1CCN(c2ncc3[nH]cnc3n2)CC1)N1N=CC[C@H]1c1ccccc1` [Example 9, (S)-(1-(7H-purin-2-yl)piperidin-4-yl)(5-phenyl-4,5-dihydro-1H-pyrazol-1-yl)methanone], the IC50 in test [1] was 1 to 100 nM; at RIP1 kinase it was 1 to 31.6 nM.
The like results for `Nc1nccc(N2CCC(C(=O)N3N=CC[C@H]3c3ccccc3)CC2)n1` [Example 11, (S)-(1-(2-aminopyrimidin-4-yl)piperidin-4-yl)(5-phenyl-4,5-dihydro-1H-pyrazol-1-yl)methanone] were, in that order, 1 to 100 nM and 1 to 31.6 nM.
Consider `COc1cc(N2CCC(C(=O)N3N=CC[C@H]3c3ccccc3)CC2)ncn1` [Example 12, (S)-(1-(6-methoxypyrimidin-4-yl)piperidin-4-yl)(5-phenyl-4,5-dihydro-1H-pyrazol-1-yl)methanone], for which the IC50 in test [1] was 1 to 100 nM; at RIP1 kinase, 1 to 31.6 nM and 1 to 10 nM.
Consider `COc1cnc(N2CCC(C(=O)N3N=CC[C@H]3c3ccccc3)CC2)nc1` [Example 13, (S)-(1-(5-methoxypyrimidin-2-yl)piperidin-4-yl)(5-phenyl-4,5-dihydro-1H-pyrazol-1-yl)methanone], for which the IC50 in test [1] is 1 to 100 nM; on RIP1 kinase, 1 to 31.6 nM and 1 to 10 nM.
Take `CNc1nccc(N2CCC(C(=O)N3N=CC[C@H]3c3ccccc3)CC2)n1` [Example 15, (S)-(1-(2-(methylamino)pyrimidin-4-yl)piperidin-4-yl)(5-phenyl-4,5-dihydro-1H-pyrazol-1-yl)methanone]: the IC50 was 1 to 100 nM in test [1]; 1 to 31.6 nM and 1 to 10 nM at RIP1 kinase.
With `CNc1ccnc(N2CCC(C(=O)N3N=CC[C@H]3c3ccccc3)CC2)n1` [Example 16, (S)-(1-(4-(methylamino)pyrimidin-2-yl)piperidin-4-yl)(5-phenyl-4,5-dihydro-1H-pyrazol-1-yl)methanone], the IC50 is 1 to 100 nM in test [1] and 1 to 31.6 nM on RIP1 kinase.
As for `COc1nccc(N2CCC(C(=O)N3N=CC[C@H]3c3ccccc3)CC2)n1` [Example 17, (S)-(1-(2-methoxypyrimidin-4-yl)piperidin-4-yl)(5-phenyl-4,5-dihydro-1H-pyrazol-1-yl)methanone], the IC50 in test [1] was 1 to 100 nM; at RIP1 kinase, 1 to 31.6 nM and 1 to 10 nM.
`N#Cc1nccc(N2CCC(C(=O)N3N=CC[C@H]3c3ccccc3)CC2)n1` [Example 18, (S)-4-(4-(5-phenyl-4,5-dihydro-1H-pyrazole-1-carbonyl)piperidin-1-yl)pyrimidine-2-carbonitrile]: the IC50 in test [1] is 1 to 100 nM; on RIP1 kinase, 1 to 31.6 nM and 1 to 10 nM.
As for `O=C(C1CCN(c2nccc(=O)[nH]2)CC1)N1N=CC[C@H]1c1ccccc1` [Example 19, (S)-2-(4-(5-phenyl-4,5-dihydro-1H-pyrazole-1-carbonyl)piperidin-1-yl)pyrimidin-4(3H)-one], the IC50 in test [1] was 1 to 100 nM; on RIP1 kinase, 1 to 31.6 nM.
In the case of `O=C(C1CCN(c2ccn3nccc3n2)CC1)N1N=CC[C@H]1c1ccccc1` [Example 21, (S)-(5-phenyl-4,5-dihydro-1H-pyrazol-1-yl)(1-(pyrazolo[1,5-a]pyrimidin-5-yl)piperidin-4-yl)methanone], the IC50 was 1 to 100 nM in test [1]; 1 to 31.6 nM and 1 to 10 nM at RIP1 kinase.
As for `O=C(C1CCN(c2ccc3nccn3n2)CC1)N1N=CC[C@H]1c1ccccc1` [Example 22, (S)-(1-(imidazo[1,2-b]pyridazin-6-yl)piperidin-4-yl)(5-phenyl-4,5-dihydro-1H-pyrazol-1-yl)methanone], the IC50 is 1 to 100 nM in test [1]; 1 to 31.6 nM and 1 to 10 nM on RIP1 kinase.
With `O=C1Cc2cnc(N3CCC(C(=O)N4N=CC[C@H]4c4ccccc4)CC3)nc2N1` [Example 24, (S)-2-(4-(5-phenyl-4,5-dihydro-1H-pyrazole-1-carbonyl)piperidin-1-yl)-5H-pyrrolo[2,3-d]pyrimidin-6(7H)-one], the figures for the IC50 (in test [1]; at RIP1 kinase) were 1 to 100 nM and 1 to 31.6 nM, respectively.
`O=C(C1CCN(c2ccc(C(F)(F)F)nn2)CC1)N1N=CC[C@H]1c1ccccc1` [Example 26, (S)-(5-phenyl-4,5-dihydro-1H-pyrazol-1-yl)(1-(6-(trifluoromethyl)pyridazin-3-yl)piperidin-4-yl)methanone]: the results for the IC50 (in test [1]; at RIP1 kinase) were 1 to 100 nM and 1 to 31.6 nM, respectively.
Turning to `NC(=O)c1cncc(N2CCC(C(=O)N3N=CC[C@H]3c3ccccc3)CC2)n1` [Example 31, (S)-6-(4-(5-phenyl-4,5-dihydro-1H-pyrazole-1-carbonyl)piperidin-1-yl)pyrazine-2-carboxamide], the values for the IC50 (in test [1]; at RIP1 kinase) were 1 to 100 nM and 1 to 31.6 nM, respectively.
As for `Cc1nc(N)cc(N2CCC(C(=O)N3N=CC[C@H]3c3ccccc3)CC2)n1` [Example 33, (S)-(1-(6-amino-2-methylpyrimidin-4-yl)piperidin-4-yl)(5-phenyl-4,5-dihydro-1H-pyrazol-1-yl)methanone], the IC50 in test [1] was 1 to 100 nM; at RIP1 kinase it was 1 to 31.6 nM.
For `COc1cc(N2CCC(C(=O)N3N=CC[C@H]3c3ccccc3)CC2)nc(N)n1` [Example 34, (S)-(1-(2-amino-6-methoxypyrimidin-4-yl)piperidin-4-yl)(5-phenyl-4,5-dihydro-1H-pyrazol-1-yl)methanone], the figures for the IC50 (in test [1]; on RIP1 kinase) were 1 to 100 nM and 1 to 31.6 nM, respectively.
Take `COc1nc(N)cc(N2CCC(C(=O)N3N=CC[C@H]3c3ccccc3)CC2)n1` [Example 35, (S)-(1-(6-amino-2-methoxypyrimidin-4-yl)piperidin-4-yl)(5-phenyl-4,5-dihydro-1H-pyrazol-1-yl)methanone]: the results for the IC50 (in test [1]; at RIP1 kinase) were 1 to 100 nM and 1 to 31.6 nM, respectively.
With `O=C(C1CCN(c2cncc(-c3ccccc3)n2)CC1)N1N=CC[C@H]1c1ccccc1` [Example 38, (S)-(5-phenyl-4,5-dihydro-1H-pyrazol-1-yl)(1-(6-phenylpyrazin-2-yl)piperidin-4-yl)methanone], the figures for the IC50 (in test [1]; on RIP1 kinase) were 1 to 100 nM and 1 to 31.6 nM, respectively.
Consider `O=C(C1CCN(c2cnc3ccccc3n2)CC1)N1N=CC[C@H]1c1ccccc1` [Example 39, (S)-(5-phenyl-4,5-dihydro-1H-pyrazol-1-yl)(1-(quinoxalin-2-yl)piperidin-4-yl)methanone], for which the IC50 is 1 to 100 nM in test [1]; 1 to 31.6 nM and 1 to 10 nM on RIP1 kinase.
On to `N#Cc1cnc(N2CCC(C(=O)N3N=CC[C@H]3c3ccccc3)CC2)cn1` [Example 40, (S)-5-(4-(5-phenyl-4,5-dihydro-1H-pyrazole-1-carbonyl)piperidin-1-yl)pyrazine-2-carbonitrile], for which the IC50 in test [1] is 1 to 100 nM; on RIP1 kinase, 1 to 31.6 nM and 1 to 10 nM.
`Nc1cncc(N2CCC(C(=O)N3N=CC[C@H]3c3ccccc3)CC2)n1` [Example 41, (S)-(1-(6-aminopyrazin-2-yl)piperidin-4-yl)(5-phenyl-4,5-dihydro-1H-pyrazol-1-yl)methanone]: the IC50 in test [1] is 1 to 100 nM; on RIP1 kinase, 1 to 31.6 nM.
Take `N#Cc1ccc(N2CCC(C(=O)N3N=CC[C@H]3c3ccccc3)CC2)nn1` [Example 42, (S)-6-(4-(5-phenyl-4,5-dihydro-1H-pyrazole-1-carbonyl)piperidin-1-yl)pyridazine-3-carbonitrile]: the IC50 in test [1] was 1 to 100 nM; at RIP1 kinase it was 1 to 31.6 nM.
As to `N#Cc1nccnc1N1CCC(C(=O)N2N=CC[C@H]2c2ccccc2)CC1` [Example 44, (S)-3-(4-(5-phenyl-4,5-dihydro-1H-pyrazole-1-carbonyl)piperidin-1-yl)pyrazine-2-carbonitrile], the IC50 in test [1] is 1 to 100 nM; on RIP1 kinase, 1 to 31.6 nM and 1 to 10 nM.

The values are drawn from US20190345138A1, “HETEROCYCLIC AMIDES AS KINASE INHIBITORS” (GlaxoSmithKline Intellectual Property Development Limited, priority 2016, published 2019).
